Some test systems named below: NCI-H522 lung; OVCAR-4 ovarian; LOX IMVI melanoma; MCF7 breast; UACC-62 melanoma; SNB-75 CNS; SK-OV-3 ovarian; SK-MEL-28 melanoma; T-47D breast.
Holding throughout (test): growth of human tumour cells (NCI), 48 h

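Where inhibition never reached the appropriate level, the endpoint shown equals the highest concentration tested. Otherwise, values were interpolated linearly from a five-concentration, 48-hour dose response in 96-well plates. GI50: concentration for 50% inhibition of growth. TGI marks complete inhibition of growth.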

On to `CC(=O)NS(=O)(=O)c1ccc(NC(=O)c2c3ccccc3nc3ccccc23)cc1`, for which the TGI with NCI-H522 lung, with OVCAR-4 ovarian, with LOX IMVI melanoma, with MCF7 breast, in the assay with UACC-62 melanoma and in the assay with SNB-75 CNS was more than 100 µM each time. The TGI with SK-OV-3 ovarian and in the assay on SK-MEL-28 melanoma was more than 100 µM in each case.

On to `CCN(CC)CCOC(NC(C)=O)(c1ccccc1)c1ccccc1`, for which the TGI with OVCAR-4 ovarian, in the assay with MCF7 breast, in the assay on UACC-62 melanoma, with SNB-75 CNS, with SK-OV-3 ovarian and with T-47D breast was more than 100 µM each time. In addition, the TGI in the assay with SK-MEL-28 melanoma is more than 100 µM.

In the case of `Cc1cc(-c2nc3c(O)cccc3s2)ccc1N`, the TGI in the assay with NCI-H522 lung was 39.9 µM; in the assay on LOX IMVI melanoma it was 40.1 µM; in the assay on MCF7 breast, 32.6 µM; in the assay on UACC-62 melanoma, 26.7 µM; in the assay with SNB-75 CNS it was more than 100 µM; in the assay with SK-OV-3 ovarian, more than 100 µM. The TGI in the assay with T-47D breast and in the assay with SK-MEL-28 melanoma was more than 100 µM each time.

Turning to `Cc1cc2c(C)cc(=O)[nH]c2cc1N`, the TGI with OVCAR-4 ovarian, in the assay on LOX IMVI melanoma, in the assay on MCF7 breast, with UACC-62 melanoma, with SNB-75 CNS and with T-47D breast was more than 100 µM each time. In the assay with SK-MEL-28 melanoma, this compound displayed a TGI of more than 100 µM.

Regarding `CCC[C@H]1C(=O)N=C(N)N1C(=O)OCc1ccccc1`, the TGI in the assay on NCI-H522 lung, in the assay with OVCAR-4 ovarian, in the assay with LOX IMVI melanoma, in the assay on MCF7 breast, with UACC-62 melanoma and with SNB-75 CNS was more than 100 µM throughout. This compound yielded a TGI in the assay with SK-MEL-28 melanoma of more than 100 µM.

Consider `COC(=O)NN(C(=O)OC)c1c(-c2ccccc2)nc(SC)n1N`, for which the TGI in the assay with NCI-H522 lung, in the assay with OVCAR-4 ovarian, in the assay with LOX IMVI melanoma, with MCF7 breast, in the assay on UACC-62 melanoma and with SNB-75 CNS was more than 100 µM throughout. For the same compound, the TGI in the assay with T-47D breast and in the assay with SK-MEL-28 melanoma was more than 100 µM throughout.

For `Cc1ccc(S(=O)(=O)Oc2cc(N)c3c(n2)CCC3)cc1`, the TGI with OVCAR-4 ovarian, in the assay on LOX IMVI melanoma, in the assay with MCF7 breast, in the assay on UACC-62 melanoma, in the assay on SNB-75 CNS and in the assay with SK-OV-3 ovarian was more than 100 µM throughout. Also, the TGI in the assay with T-47D breast and in the assay on SK-MEL-28 melanoma was more than 100 µM in each case.

As for `C=C(Cl)/C(=C\Cl)CCC(Br)C(C)C` (centres undefined), the TGI with NCI-H522 lung is 39.9 µM; in the assay on OVCAR-4 ovarian it was 95.5 µM; with LOX IMVI melanoma, 31.4 µM; in the assay on MCF7 breast it was more than 100 µM; in the assay with UACC-62 melanoma, more than 100 µM; in the assay with SNB-75 CNS, more than 100 µM. For the same compound, the TGI in the assay on SK-OV-3 ovarian and in the assay with SK-MEL-28 melanoma was more than 100 µM each time.

As to `O=C(O)C1CC(c2ccc(F)cc2)=Nc2ccc(F)cc2S1` (centres undefined), the TGI in the assay on NCI-H522 lung, in the assay on OVCAR-4 ovarian, in the assay on MCF7 breast, in the assay with UACC-62 melanoma, with SNB-75 CNS and in the assay on SK-OV-3 ovarian was more than 100 µM in each case. Also, the TGI with T-47D breast and in the assay on SK-MEL-28 melanoma was more than 100 µM in each case.

With `CCOC1CC(=O)c2c(Br)sc(Br)c21` (centres undefined), the TGI in the assay with NCI-H522 lung turned out to be 52.7 µM; with LOX IMVI melanoma, 42.2 µM; with MCF7 breast it was 40.5 µM; with UACC-62 melanoma, 35.1 µM; in the assay with SNB-75 CNS, 35.7 µM; in the assay with SK-OV-3 ovarian, 30.4 µM. For the same compound, the values for the TGI in the assay on T-47D breast and in the assay on SK-MEL-28 melanoma were 44.1 µM and 39.5 µM, respectively.

`O=C1NCCCc2nonc21`: the TGI in the assay with OVCAR-4 ovarian, in the assay with LOX IMVI melanoma, in the assay with MCF7 breast, in the assay on UACC-62 melanoma, with SNB-75 CNS and in the assay with SK-OV-3 ovarian was more than 100 µM each time. For the same compound, the TGI in the assay on T-47D breast and in the assay with SK-MEL-28 melanoma was more than 100 µM in each case.

As to `Cc1cc(C)c2c(=O)n(CN3CC4Nc5ccccc5C4C3)sc2n1` (centres undefined), the TGI in the assay on NCI-H522 lung is 14.2 µM; in the assay on OVCAR-4 ovarian it was 42.2 µM; with LOX IMVI melanoma, 48.5 µM; in the assay with MCF7 breast, more than 100 µM; in the assay on UACC-62 melanoma it was 71.4 µM; with SK-OV-3 ovarian, more than 100 µM. Also, the TGI with T-47D breast is more than 100 µM; in the assay on SK-MEL-28 melanoma, 82.3 µM.

In the case of `COc1ccc(/C(=N/O)c2ccccc2-c2nc3ccccc3c(=O)n2-c2ccc(S(=O)(=O)Nc3ncccn3)cc2)cc1C`, the TGI is 23.7 µM with NCI-H522 lung; more than 31.6 µM with OVCAR-4 ovarian; 22.2 µM in the assay on MCF7 breast; 19.9 µM with UACC-62 melanoma; 26.6 µM in the assay with SNB-75 CNS; 20.8 µM in the assay on SK-OV-3 ovarian. Further, the values for the TGI in the assay with T-47D breast and with SK-MEL-28 melanoma were 25.2 µM and 23 µM, respectively.

As for `COc1cc(C2c3cc4c(cc3OC(NN=C(C)C)C2C)OCO4)cc(OC)c1O` (centres undefined), the TGI in the assay with NCI-H522 lung is 25.3 µM; in the assay with OVCAR-4 ovarian it was more than 100 µM; in the assay with MCF7 breast it was more than 100 µM; with UACC-62 melanoma it was more than 100 µM; with SNB-75 CNS, 48.5 µM; in the assay with T-47D breast, more than 100 µM. The TGI in the assay on SK-MEL-28 melanoma is more than 100 µM.

For `CCCCN1CCN(c2ccc3nc(-c4ccc5nc(-c6ccc(C(F)(F)F)cc6)[nH]c5c4)[nH]c3c2)CC1`, the GI50 in the assay with NCI-H522 lung is 1.78 µM; with OVCAR-4 ovarian, 0.859 µM; in the assay with LOX IMVI melanoma it was 0.839 µM; in the assay on UACC-62 melanoma, 1.58 µM; in the assay on SNB-75 CNS it was 1.11 µM; in the assay on SK-OV-3 ovarian it was 1.91 µM. The results for the GI50 with T-47D breast and in the assay with SK-MEL-28 melanoma were 1.38 µM and 1.69 µM, respectively. The TGI with NCI-H522 lung came to 3.49 µM; with OVCAR-4 ovarian, 2.39 µM; in the assay on LOX IMVI melanoma, 2.27 µM; in the assay with UACC-62 melanoma, 3.11 µM; with SNB-75 CNS, 2.34 µM; with SK-OV-3 ovarian, 3.39 µM. In addition, the TGI in the assay with T-47D breast and in the assay on SK-MEL-28 melanoma was 3.19 µM throughout.

The values are drawn from PubChem BioAssay (NCI).
